Results taken from US20260285816A1, “Piperazinyl-Modified Quinazolinyl-Aryl Urea Derivative, And Preparation Method And Use Thereof” (Guangxi Normal University, priority 2025, published 2026).

What was measured:
Format in all cases: cell-based, human
[1] = test system: MCF-7 cells; test: CCK-8 anti-proliferative assay, MCF-7; conditions: Homo sapiens, MCF7; Table 12; co-incubated 48 h; read-out: Anti-proliferative activity (IC50 ± standard deviation) MCF-7
Description: (§1) The obtained quinazolinyl-aryl urea derivatives were screened for compounds with optimal activity using the following method.
(§2) Experimental Procedure for Anti-Proliferative Activity Evaluation: The CCK-8 assay was employed. Cells in logarithmic growth phase were harvested, adjusted to appropriate density, and uniformly seeded into 96-well plates using a multichannel pipette (180 μL cell suspension containing complete medium per well, 5,000 cells/well). Blank control wells (containing basal medium, CCK-8 solution, and DMSO only) were set. Cells were incubated at 37° C. under 5% CO2. After 70% confluency was reached, test compounds (target compounds/positive controls) were added at final concentrations of 1, 2, 4, 6, 8, 12, 16, 24, and 30 μM (3 repeated wells per concentration). Compounds were pre-dissolved in DMSO, sterilized, and diluted with medium before adding 20 μL/well. After co-incubation for designated durations, 10 μL CCK-8 solution was added per well followed by 1-4 h incubation (different cells have different incubation times). […] Inhibition rates were calculated as: (ODcontrol−ODtreatment)/ODcontrol×100%. Median inhibitory concentrations (IC50 values) were derived using Origin v8.0 software.

[2] = test system: 5637 cells; test: CCK-8 anti-proliferative assay, 5637; conditions: Homo sapiens; Table 10; co-incubated 48 h; read-out: Anti-proliferative activity (IC50 ± standard deviation) 5637
Description: as §1, §2

[3] = test system: MG-63 cells; test: CCK-8 anti-proliferative assay, MG-63; conditions: Homo sapiens, MG-63; Table 11; co-incubated 48 h; read-out: Anti-proliferative activity (IC50 ± standard deviation) MG-63
From the text: (§3) The obtained quinazolinyl-aryl urea derivatives were screened for compounds with optimal activity using the following method. All cell lines employed in this experiment were of human origin, including: bladder cancer cells: J82, UM-UC-3, T24, 5637, pancreatic cancer cells: BxPC-3, PANC-1, osteosarcoma cells: 143B, MG-63, cervical cancer cells: HeLa, breast cancer cells: MCF-7, NSCLC cells: A549, hepatoblastoma cells: Hep G2, and ovarian cancer cells: SK-OV-3, as well as normal cell lines: immortalized ureteral epithelial cells (SV-HUC-1), embryonic lung fibroblasts (WI-38).
(§4) Experimental Procedure for Anti-Proliferative Activity Evaluation: The CCK-8 assay was employed. Cells in logarithmic growth phase were harvested, adjusted to appropriate density, and uniformly seeded into 96-well plates using a multichannel pipette (180 μL cell suspension containing complete medium per well, 5,000 cells/well). Blank control wells (containing basal medium, CCK-8 solution, and DMSO only) were set. Cells were incubated at 37° C. under 5% CO2. After 70% confluency was reached, test compounds (target compounds/positive controls) were added at final concentrations of 1, 2, 4, 6, 8, 12, 16, 24, and 30 μM (3 repeated wells per concentration). Compounds were pre-dissolved in DMSO, sterilized, and diluted with medium before adding 20 μL/well. After co-incubation for designated durations, 10 μL CCK-8 solution was added per well followed by 1-4 h incubation (different cells have different incubation times). The reaction was terminated, and OD (optical density) values at 450 nm were measured using a microplate reader. Inhibition rates were calculated as: (ODcontrol−ODtreatment)/ODcontrol×100%. Median inhibitory concentrations (IC50 values) were derived using Origin v8.0 software.

[4] = test system: UM-UC-3 cells; test: CCK-8 anti-proliferative assay, UM-UC-3; conditions: Homo sapiens, UMUC3; Table 10; co-incubated 48 h; read-out: Anti-proliferative activity (IC50 ± standard deviation) UM-UC-3
Description: as §1, §2

[5] = test system: A549 cells; test: CCK-8 anti-proliferative assay, A549; conditions: Homo sapiens, A549; Table 13; co-incubated 48 h; read-out: Anti-proliferative activity (IC50 ± standard deviation) A549
Description: as §1, §2

[6] = test system: SK-OV-3 cells; test: CCK-8 anti-proliferative assay, SK-OV-3; conditions: Homo sapiens, SK-OV-3; Table 12; co-incubated 48 h; read-out: Anti-proliferative activity (IC50 ± standard deviation) SK-OV-3
Description: as §1, §2

[7] = test system: immortalized ureteral epithelial cells (SV-HUC-1); test: CCK-8 anti-proliferative assay, normal cells SV-HUC-1; conditions: Homo sapiens, SV-HUC1; Table 13; normal cells; co-incubated 48 h; read-out: Anti-proliferative activity (IC50 ± standard deviation) SV-HUC-1
Description: as §1, §2

[8] = test system: HeLa cells; test: CCK-8 anti-proliferative assay, HeLa; conditions: Homo sapiens, HeLa; Table 12; co-incubated 48 h; read-out: Anti-proliferative activity (IC50 ± standard deviation) HeLa
Description: as §1, §2

[9] = test system: J82 cells; test: CCK-8 anti-proliferative assay, J82; conditions: Homo sapiens, J82; Table 10; co-incubated 48 h; read-out: Anti-proliferative activity (IC50 ± standard deviation) J82
Description: as §1, §2

[10] = test system: PANC-1 cells; test: CCK-8 anti-proliferative assay, PANC-1; conditions: Homo sapiens, PANC-1; Table 11; co-incubated 48 h; read-out: Anti-proliferative activity (IC50 ± standard deviation) PANC-1
From the text: as §3, §4

[11] = test system: 143B cells; test: CCK-8 anti-proliferative assay, 143B; conditions: Homo sapiens, 143B; Table 11; co-incubated 48 h; read-out: Anti-proliferative activity (IC50 ± standard deviation) 143B
From the text: as §3, §4

[12] = test system: embryonic lung fibroblasts (WI-38); test: CCK-8 anti-proliferative assay, normal cells WI-38; conditions: Homo sapiens, WI-38, Table 13, co-incubated 48 h, read-out: Anti-proliferative activity (IC50 ± standard deviation) WI-38
From the text: as §3, §4

[13] = test system: T24 cells; test: CCK-8 anti-proliferative assay, T24; conditions: Homo sapiens, T-24; Table 10; co-incubated 48 h; read-out: Anti-proliferative activity (IC50 ± standard deviation) T24
From the text: as §3, §4

[14] = test system: Hep G2 cells; test: CCK-8 anti-proliferative assay, Hep G2; conditions: Homo sapiens, HepG2; Table 12; co-incubated 48 h; read-out: Anti-proliferative activity (IC50 ± standard deviation) Hep G2
From the text: as §3, §4

[15] = test system: BxPC-3 cells; test: CCK-8 anti-proliferative assay, BxPC-3; conditions: Homo sapiens, BXPC-3; Table 11; co-incubated 48 h; read-out: Anti-proliferative activity (IC50 ± standard deviation) BxPC-3
From the text: as §3, §4

SMILES	IC50 [1]	IC50 [5]	IC50 [6]	IC50 [8]	IC50 [10]	IC50 [13]	IC50 [15]	IC50 [2]	IC50 [3]	IC50 [4]	IC50 [7]	IC50 [9]	IC50 [11]	IC50 [12]	IC50 [14]
COc1cc2ncnc(NCc3cccc(NC(=O)Nc4ccc(F)cc4)c3)c2cc1OCCCCCCN1CCC(CN2CCN(c3ccccn3)CC2)CC1 [Compound 8-2n, N-(3-(((7-methoxy-6-((6-(4-((4-(pyridin-2-yl)piperazin-1-yl)methyl)piperidin-1-yl)hexyl)oxy)quinazolin-4-yl)amino)methyl)phenyl)-N′-(4-fluorophenyl)urea]	12.8 ± 0.85 µM	15.4 ± 0.83 µM	5.93 ± 0.61 µM	12.7 ± 0.92 µM	18.8 ± 1.43 µM	5.82 ± 0.36 µM	14.4 ± 1.55 µM	8.61 ± 0.73 µM	8.39 ± 0.66 µM	12.8 ± 0.76 µM	14.4 ± 0.77 µM	15 ± 1.19 µM	6.71 ± 0.48 µM	9.98 ± 0.53 µM	8.51 ± 0.67 µM
COc1cc2ncnc(NCc3cccc(NC(=O)Nc4ccc(Cl)cc4Cl)c3)c2cc1OCCCCCCN1CCC(CN2CCN(c3ccccn3)CC2)CC1 [Compound 8-2r, N-(3-(((7-methoxy-6-((6-(4-((4-(pyridin-2-yl)piperazin-1-yl)methyl)piperidin-1-yl)hexyl)oxy)quinazolin-4-yl)amino)methyl)phenyl)-N′-(2,4-dichlorophenyl)urea]	11.4 ± 0.76 µM	12.3 ± 0.92 µM	11.3 ± 0.83 µM	7.37 µM	14.6 ± 0.78 µM	5.12 ± 0.39 µM	10.3 ± 0.93 µM	6.29 ± 0.37 µM	7.02 ± 0.58 µM	11.7 ± 0.96 µM	8.41 ± 0.43 µM	4.73 ± 0.38 µM	8.91 ± 0.77 µM	7.72 ± 0.39 µM	7.02 ± 0.49 µM
COc1cc2ncnc(NCc3cccc(NC(=O)Nc4ccccc4)c3)c2cc1OCCCCCCN1CCC(CN2CCN(c3ccccn3)CC2)CC1 [Compound 8-2a, N-(3-(((7-methoxy-6-((6-(4-((4-(pyridin-2-yl)piperazin-1-yl)methyl)piperidin-1-yl)hexyl)oxy)quinazolin-4-yl)amino)methyl)phenyl)-N′-phenylurea]	26.3 ± 1.46 µM	> 30 µM	22.4 ± 1.33 µM	> 30 µM	> 30 µM	15.8 ± 0.92 µM	> 30 µM	16.2 ± 0.77 µM	17.4 ± 1.38 µM	25.8 ± 1.81 µM	26.4 ± 1.69 µM	> 30 µM	> 30 µM	17.6 ± 0.72 µM	25.7 ± 1.81 µM

Stronger by IC50 [1], values ahead:

IC50 [1]	IC50 [5]	IC50 [6]	IC50 [8]	IC50 [10]	IC50 [13]	IC50 [15]	SMILES	IC50 [2]	IC50 [3]	IC50 [4]	IC50 [7]	IC50 [9]	IC50 [11]	IC50 [12]	IC50 [14]
5.94 ± 0.36 µM	11.8 ± 0.88 µM	13.3 ± 0.84 µM	7.29 ± 0.24 µM	15.6 ± 0.93 µM	6.47 ± 0.25 µM	11.3 ± 0.73 µM	COc1cc2ncnc(NCc3cccc(NC(=O)Nc4ccc(C(F)(F)F)cc4)c3)c2cc1OCCCCCCN1CCC(CN2CCN(c3ccccn3)CC2)CC1 [Compound 8-2t, N-(3-(((7-methoxy-6-((6-(4-((4-(pyridin-2-yl)piperazin-1-yl)methyl)piperidin-1-yl)hexyl)oxy)quinazolin-4-yl)amino)methyl)phenyl)-N′-(4-(trifluoromethyl)phenyl)urea]	7.32 ± 0.57 µM	11.7 ± 0.92 µM	6.79 ± 0.41 µM	8.92 ± 0.49 µM	5.46 ± 0.41 µM	9.42 ± 0.56 µM	10.6 ± 0.64 µM	4.76 ± 0.45 µM
6.69 ± 0.48 µM	8.39 ± 0.85 µM	7.94 ± 0.66 µM	6.19 ± 0.53 µM	19.2 ± 1.08 µM	7.29 ± 0.61 µM	13.4 ± 0.88 µM	COc1cc2ncnc(NCc3cccc(NC(=O)Nc4cccc(C)c4)c3)c2cc1OCCCCCCN1CCC(CN2CCN(c3ccccn3)CC2)CC1 [Compound 8-2c, N-(3-(((7-methoxy-6-((6-(4-((4-(pyridin-2-yl)piperazin-1-yl)methyl)piperidin-1-yl)hexyl)oxy)quinazolin-4-yl)amino)methyl)phenyl)-N′-(3-methylphenyl)urea]	7.06 ± 0.57 µM	6.83 ± 0.62 µM	8.98 ± 0.89 µM	8.28 ± 0.51 µM	7.02 ± 0.58 µM	6.01 ± 0.46 µM	11.2 ± 0.49 µM	4.69 ± 0.36 µM
4.41 ± 0.27 µM	7.98 ± 0.92 µM	5.49 ± 0.63 µM	6.98 ± 0.83 µM	14.9 ± 0.79 µM	4.73 ± 0.42 µM	14.9 ± 1.28 µM	COc1cc2ncnc(NCc3cccc(NC(=O)Nc4ccc(Cl)c(C(F)(F)F)c4)c3)c2cc1OCCCCCCN1CCC(CN2CCN(c3ccccn3)CC2)CC1 [Compound 8-2v]	11.8 ± 0.95 µM	8.02 ± 0.79 µM	6.77 ± 0.69 µM	7.33 ± 0.46 µM	11.1 ± 0.69 µM	6.84 ± 0.59 µM	8.71 ± 0.52 µM	4.97 ± 0.35 µM
